Tests used:
[1] = pH recovery of calcium carbonate slurry after lowering to pH 8 with CO2 enriched air (Example 1); type: physicochemical
Excerpt: The pH of the aqueous suspension may be measured using any conventional pH meter. […] This may be carried out using either a manual or automatic method, depending on the type of instrument being used.
(§1) The pH of the aqueous suspension may be measured by: • mixing a sample of the aqueous suspension to ensure homogeneity, by using either the bench stirrer or the rotating rollers, or by shaking the sample container and contents vigorously; • measuring the temperature of the sample and adjusting the temperature to 22° C.; • removing the pH electrode from its deionised water storage solution and immersing it carefully into the test slurry; • waiting until a stable pH reading is obtained; • recording the pH value of the undisturbed slurry. Viscosity
1 kg samples of a calcium carbonate slurry having 78 wt % solids and 60% of particles less than 2 μm in size (measured using a micrometrics sedigraph) were adjusted to […] at room temperature using 2-amino-2-methyl-1-propanol (AMP) or dimethylethanolamine (DMEA). The control sample was adjusted to pH 10 using dilute sodium hydroxide solution. The solids content of the samples was adjusted using deionised water.
The pH of each slurry was lowered to pH 8 by aspirating the sample with carbon dioxide (CO2) enriched air (2%) using a flow rate of 5 mL/min. When pH 8 had been reached, aspiration of the sample was stopped.
Recovery of the sample pH was then monitored and recorded over subsequent days using the Mettler Toledo FE20 pH meter as described above in the detailed description.

[2] = pH of calcium carbonate slurry after sequential 50 mg/kg additions (Example 2); type: physicochemical; settings: for δ pH: change per 50 mg/kg aliquot
Excerpt: The pH of the aqueous suspension may be measured using any conventional pH meter. For example, the pH of the aqueous suspension may be measured using the Digital pH meter “Mettler Toledo FE20”, which has been calibrated in accordance with the manufacturer's instructions, using buffer solutions with nominal values of 4, 7 and 9. This may be carried out using either a manual or automatic method, depending on the type of instrument being used.
as §1
50 mg/kg aliquots of either AMP or DMEA were sequentially added to 250 g calcium carbonate slurry samples having 78 wt % solids and 60% of particles less than 2 μm in size (measured using a micrometrics sedigraph). In this context, 50 mg/kg means that 50 mg of AMP or DMEA was added per kg of dry inorganic particulate material in the aqueous suspension. The pH of the samples was measured after stirring immediately after each 50 mg/kg addition.

Q: What does the source list for `CC(C)(N)CO` [AMP, 2-amino-2-methyl-1-propanol, reference compound]?
A: pH of sample ([1]; day 0, before CO2 aspiration): 9.50; δ pH ([1]; day 0.5): 0.00; pH of sample ([1]; day 0.5, lowered to pH 8 with CO2): 8.00; pH of sample ([1]; day 1): 8.16; δ pH ([1]; day 1): 0.13; pH of sample ([1]; day 2): 8.26; δ pH ([1]; day 2): 0.23; pH of sample ([1]; day 16): 8.46; δ pH ([1]; day 16): 0.43; pH of sample ([1]; day 20): 8.50; δ pH ([1]; day 20): 0.47; pH of sample ([1]; day 23): 8.52; δ pH ([1]; day 23): 0.49; pH of sample ([1]; day 24): 8.58; δ pH ([1]; day 24): 0.55; pH of sample ([1]; day 27): 8.61; δ pH ([1]; day 27): 0.58; pH of sample ([1]; day 28): 8.66; δ pH ([1]; day 28): 0.66; δ pH ([2]; total 50 mg/kg added): 0.27; pH of sample ([2]; total 50 mg/kg of chemical added): 9.28; δ pH ([2]; total 100 mg/kg added): 0.21; pH of sample ([2]; total 100 mg/kg of chemical added): 9.49; δ pH ([2]; total 150 mg/kg added): 0.15; pH of sample ([2]; total 150 mg/kg of chemical added): 9.64; δ pH ([2]; total 200 mg/kg added): 0.14; pH of sample ([2]; total 200 mg/kg of chemical added): 9.78; δ pH ([2]; total 250 mg/kg added): 0.14; pH of sample ([2]; total 250 mg/kg of chemical added): 9.92; δ pH ([2]; total 300 mg/kg added): 0.09; pH of sample ([2]; total 300 mg/kg of chemical added): 10.01; δ pH ([2]; total 350 mg/kg added): 0.07; pH of sample ([2]; total 350 mg/kg of chemical added): 10.08; δ pH ([2]; total 400 mg/kg added): 0.07; pH of sample ([2]; total 400 mg/kg of chemical added): 10.15; δ pH ([2]; total 450 mg/kg added): 0.07; pH of sample ([2]; total 450 mg/kg of chemical added): 10.22; δ pH ([2]; total 500 mg/kg added): 0.05; pH of sample ([2]; total 500 mg/kg of chemical added): 10.27; δ pH ([2]; total 550 mg/kg added): 0.05; pH of sample ([2]; total 550 mg/kg of chemical added): 10.32; δ pH ([2]; total 600 mg/kg added): 0.05; pH of sample ([2]; total 600 mg/kg of chemical added): 10.37

— patent US10590276B2, “Aqueous suspension of inorganic particulate material” (ImerTech SAS, priority 2013, dated 2020)
